Read-outs that look alike come from different tables or passages of the source. One block for each molecule: values may come before it.
Columns and labels:
[1] = tested on: confinement-stress induced ulcers through immersion in water; experiment: Confinement-stress induced ulcers through immersion in water (hydrorestraint stress ulcer preventing effect); type: in vivo, male rats of the Crj : Wistar strain; details: for inhibition at 1 mg/kg: dosage 1 mg/kg; for inhibition at 3 mg/kg: dosage 3 mg/kg; for inhibition at 10 mg/kg: dosage 10 mg/kg; for inhibition at 5 mg/kg: dosage 5 mg/kg; for inhibition at 0.3 mg/kg: dosage 0.3 mg/kg; for ulcer inhibiting effect: conclusion in words from Table 3
Procedure: (§1) As test samples, we used the PGE as obtained in Examples 2 to 52 as described herein, 13,14-dihydro-15-keto-PGE2 (produced by Funakoshi & Co.) being employed as a control reference.
(§2) Each group of test animals used consisted of 8 to 10 male rats of the Crj : Wistar strain, weighing 180 to 230 g. Test animals were fasted for 24 hours before the oral administration of the test samples; in the case of development of confinement-stress induced ulcers through immersion in water, 10 minutes after oral administration of the test specimens, the aminals were confined in a stress cage developed by Univ. of Tokyo, then immersed up to the ensiform process of sternum in water at 23°C for 4 hours and sacrificed; in the case of formation of indomethacin-induced ulcers, shortly after the materials were given, animals were given indomethacin orally at a dose of 10 mg/kg and sacrificed after 5 hours.
(§3) The stomacks were taken out, followed by fixation with 1 % formalin, and incised along the greater curvature to carry out investigation under an illuminated magnifier for ulceration. The degree and extent of lesion and ulcer were rated based on the ulceration index being classified into the following five numerical categories: • 0: normal, with no lesion detected; • 1: bleeding or erosion of mucosa; • 2: development of less than 5 small ulcers (not greater than 2 mm in diameter); • 3: generation of not less than 5 small ulcers or a large ulcer (not less than 2 mm in diameter); • 4: generation of not less than 2 large ulcers.
(§4) On the basis of the criteria that the rats with the ulceration index of not less than "2", the ulcer inhibition rate (EDso) was calculated from ulcer-generation ratio in the control and the ratio of the test specimens.

[2] = tested on: indomethacin-induced ulcers; experiment: Indomethacin-induced ulcers (indomethacin ulcer preventing effect); type: in vivo, male rats of the Crj : Wistar strain; details: rats; for ED50: ulcer inhibition rate (Table 2); for Ulcer index (aver. ± SE): indomethacin 10 mg/kg oral ulcer, index 0-4
Procedure: as §1, §2, §3, §4

uterus = experiment: Uterine constriction, isolated uterus in Magnus tube; design: species or system female rat; details: rat uterus, constriction relative to 1 mU oxytocin = 100, EC50 class; read-out: Uterus constriction effect
Procedure: A female rat (of 150g in weight) was dehematized to death, and its uterus was taken out, which was cut to a length of 1.5 - 2.5 cm. The cut uterus was hung in a magnus tube. The uterus was constricted several times with 1 mU Oxytocin. After stable uterine movement was obtained, the material to be tested was independently administered. Constrictions with the material were expressed in terms of ratios based on constriction of 1 mU of oxytocin = 100, and values of EC50 were determined on the following standards. +:EC50 < 10^-7 M ±:10^-5 M ≦ EC50 ≦ 10^-7 M -: 10^-5 M < ECso

ileum = experiment: Intestinal constriction effect, isolated ileum in Magnus tube; design: species or system male Wister rat; details: rat ileum, constriction relative to acetylcholine, ED50 class
Procedure: A male Wister rat (of 250 - 300g in weight) was struck to death, and immediately its carotid artery was cut to dehematize. An ileum portion located about 10 cm from the cecum was extracted, and after its contents were washed away with a Tyrode liquid, a 1.5 - 2 cm long part of it was cut off and hung in a Magnus tube.
The constriction of the ileum was brought to rest for 15 - 20 minutes until the ileum was allowed to be stabilized, and subsequently the ileum was constricted with […]/mt of acetylcholine. After constructions of same magnitude were had two times, the material to be tested was cumulatively administered at one- minute intervals.
Constrictions with the material tested were expressed in terms of ratios, based on constriction per 10 g/m t of acetylcholine, and values for ED50 were determined. + : EDso < 10^-6 M ±: 10^-4 M ≦ ED50 ≦ 10^-6 M -: 10^-4 M < ED50

trachea = experiment: Tracheal relaxation, isolated tracheal rings constricted with histamine; design: species or system male gunea pig; details: guinea pig trachea, inhibition of constriction under histamine 5.4 x 10^-4 M, IC50 class, read-out: Tracheal relaxation effect
Procedure: A male gunea pig (of about 300 g in weight) was struck to death, and its artery was cut to dehematize. Its trachea, after having been extracted, was cut open lengthwise on the opposite side to the trachea smooth muscle, and seven tracheal rings were connected by string in a chain-like pattern, same being hung in a Magnus tube.
Trachea was brought to rest for 60 - 90 minutes and until tracheal equilibrium was reached. Thereafter, 5.4 x 10 ^-4 M of histamine was administered in such manner that it was cumulatively administered at 6 minutes' intervals after a constriction peak was reached. Tracheal relaxation with the material tested was expressed in terms of ratio of constrictional inhibition under histamine administering, and values for IC50 were determined. + : IC50 < 10^-7 M ± : 10^-5 M ≦ IC50 ≦ 10^-7 M -: 10^-5 M < IC50

[3] = Rattus norvegicus, stress ulcer, rats, oral, read-out: Inhibition factor (%)
[4] = Rattus norvegicus, stress ulcer, rats, oral, ulcer inhibition rate, ulceration index not less than 2 counted (Table 1), read-out: ED50
[5] = Rattus norvegicus, indomethacin ulcer, oral, dosage 3 mg/kg, read-out: Inhibition factor (%)
[6] = Rattus norvegicus, indomethacin ulcer, oral, dosage 10 mg/kg, read-out: Inhibition factor (%)
[7] = Rattus norvegicus, indomethacin ulcer, oral
[8] = Rattus norvegicus, indomethacin ulcer, oral, dosage 20 mg/kg, read-out: Inhibition factor (%)
[9] = Rattus norvegicus, indomethacin ulcer, oral, dosage 1 mg/kg, read-out: Inhibition factor (%)
[10] = Rattus norvegicus, po, hydrorestraint stress-ulcer preventing effect, procedure of Test Example 1 (Table 3), read-out: Ulcer inhibiting effect ED50

SMILES: CCCCCC(=O)CC[C@H]1[C@H](O)CC(=O)[C@@H]1CC(=O)CCCCC(=O)OCC (racemic) [(11)]
inhibition at 1 mg/kg [1, 3]: 25% | inhibition at 3 mg/kg [1, 3]: 57.1% | inhibition at 10 mg/kg [1, 3]: 85.7% | ED50 [1, 4]: 2.4 mg/kg | inhibition at 3 mg/kg [2, 5]: 0% | inhibition at 10 mg/kg [2, 6]: 50% | ED50 [2, 7]: 10 mg/kg | Ulcer index (aver. ± SE) ([2]; dosage 3 mg/kg): 2.6±0.3 | Ulcer index (aver. ± SE) ([2]; dosage 10 mg/kg): 2.0±0.2

SMILES: CCCCCC(=O)CC[C@H]1[C@H](O)CC(=O)[C@@H]1C/C=C\CCCC(=O)O [(1)]
inhibition at 20 mg/kg ([1]; Rattus norvegicus, stress ulcer, rats, oral, dosage 20 mg/kg, read-out: Inhibition factor (%)): 6.3% | ED50 [1, 4]: > 20 mg/kg | inhibition at 20 mg/kg [2, 8]: 4% | ED50 [2, 7]: > 20 mg/kg | Ulcer index (aver. ± SE) ([2]; dosage 20 mg/kg): 2.4±0.4

SMILES: CCCCCC(=O)CC[C@H]1[C@H](O)CC(=O)[C@@H]1C/C=C\CCCC(=O)OC [(2)]
inhibition at 5 mg/kg [1, 3]: 58.3% | inhibition at 15 mg/kg ([1]; Rattus norvegicus, stress ulcer, rats, oral, dosage 15 mg/kg, read-out: Inhibition factor (%)): 87.5% | ED50 [1, 4]: 4 mg/kg | inhibition at 3 mg/kg [2, 5]: 30% | inhibition at 6 mg/kg ([2]; Rattus norvegicus, indomethacin ulcer, oral, dosage 6 mg/kg, read-out: Inhibition factor (%)): 50% | inhibition at 20 mg/kg [2, 8]: 100% | ED50 [2, 7]: 6 mg/kg | Ulcer index (aver. ± SE) ([2]; dosage 3 mg/kg): 1.9±0.4 | Ulcer index (aver. ± SE) ([2]; dosage 6 mg/kg): 1.4±0.3 | Ulcer index (aver. ± SE) ([2]; dosage 20 mg/kg): 0.4±0.2

SMILES: CCCCCC(=O)CC[C@H]1[C@H](O)CC(=O)[C@@H]1C/C=C\CCCC(=O)OCC [(3)]
inhibition at 1 mg/kg [1, 3]: 25% | inhibition at 3 mg/kg [1, 3]: 86.1% | inhibition at 10 mg/kg [1, 3]: 100% | ED50 [1, 4]: 1.5 mg/kg | inhibition at 3 mg/kg [2, 5]: 42.9% | inhibition at 10 mg/kg [2, 6]: 71.4% | ED50 [2, 7]: 4.4 mg/kg | Ulcer index (aver. ± SE) ([2]; dosage 3 mg/kg): 1.7±0.4 | Ulcer index (aver. ± SE) ([2]; dosage 10 mg/kg): 1.0±0.3

SMILES: CCCCCC(=O)CC[C@H]1[C@H](O)CC(=O)[C@@H]1C/C=C\CCCC(=O)OCCC [(4)]
inhibition at 1 mg/kg [1, 3]: 16.7% | inhibition at 5 mg/kg [1, 3]: 44.4% | ED50 [1, 4]: 7 mg/kg

SMILES: CCCCCC(=O)CC[C@H]1[C@H](O)CC(=O)[C@@H]1C/C=C\CCCC(=O)OC(C)C [(5)]
inhibition at 1 mg/kg [1, 3]: 14.3% | inhibition at 5 mg/kg [1, 3]: 44% | ED50 [1, 4]: 6.5 mg/kg

SMILES: CCCCCC(=O)CC[C@H]1[C@H](O)CC(=O)[C@@H]1CCCCCCC(=O)OC [(6)]
inhibition at 3 mg/kg [1, 3]: 28% | inhibition at 10 mg/kg [1, 3]: 72.2% | ED50 [1, 4]: 5.5 mg/kg

SMILES: CCCCCC(=O)CC[C@H]1[C@H](O)CC(=O)[C@@H]1CCCCCCC(=O)OCC [(7)]
inhibition at 3 mg/kg [1, 3]: 37.5% | inhibition at 10 mg/kg [1, 3]: 75% | ED50 [1, 4]: 4.5 mg/kg

SMILES: CCCCCC(=O)CC[C@H]1[C@H](O)CC(=O)[C@@H]1CC(=O)CCCCC(=O)OC [(8)]
inhibition at 0.3 mg/kg [1, 3]: 30.6% | inhibition at 1 mg/kg [1, 3]: 62.5% | ED50 [1, 4]: 0.6 mg/kg | inhibition at 1 mg/kg [2, 9]: 14.3% | inhibition at 3 mg/kg [2, 5]: 42.9% | ED50 [2, 7]: 3.8 mg/kg | Ulcer index (aver. ± SE) ([2]; dosage 1 mg/kg): 2.3±0.4 | Ulcer index (aver. ± SE) ([2]; dosage 3 mg/kg): 1.7±0.3

SMILES: CCCCCC(=O)CC[C@H]1[C@H](O)CC(=O)[C@@H]1CC(=O)CCCCC(=O)OCC [(9)]
inhibition at 0.3 mg/kg [1, 3]: 37.5% | inhibition at 1 mg/kg [1, 3]: 75% | ED50 [1, 4]: 0.45 mg/kg | inhibition at 1 mg/kg [2, 9]: 37.5% | inhibition at 3 mg/kg [2, 5]: 50.5% | ED50 [2, 7]: 3 mg/kg | Ulcer index (aver. ± SE) ([2]; dosage 1 mg/kg): 2.1±0.3 | Ulcer index (aver. ± SE) ([2]; dosage 3 mg/kg): 1.5±0.3

SMILES: CCCCCC(=O)CC[C@H]1[C@H](O)CC(=O)[C@@H]1CC(=O)CCCCC(=O)OCCCC [(10)]
inhibition at 1 mg/kg [1, 3]: 25.5% | inhibition at 3 mg/kg [1, 3]: 78.4% | ED50 [1, 4]: 1.5 mg/kg

SMILES: CCOC(=O)CCCCC(=O)C[C@H]1C(=O)C[C@@H](O)[C@@H]1CCC(=O)CCCC(C)C [(36)]
inhibition at 0.3 mg/kg [1, 3]: 22.6% | inhibition at 1 mg/kg [1, 3]: 57% | ED50 [1, 4]: 0.8 mg/kg

SMILES: CCCCCCC(=O)CC[C@H]1[C@H](O)CC(=O)[C@@H]1CC(=O)CCCCC(=O)OCC [(37)]
inhibition at 1 mg/kg [1, 3]: 8.1% | inhibition at 3 mg/kg [1, 3]: 45.9% | inhibition at 6 mg/kg ([1]; Rattus norvegicus, stress ulcer, rats, oral, dosage 6 mg/kg, read-out: Inhibition factor (%)): 79.7% | ED50 [1, 4]: 3 mg/kg

SMILES: CCCCCC(=O)CC[C@H]1[C@H](C)CC(=O)[C@@H]1CC(=O)CCCCC(=O)OC [(38)]
inhibition at 0.3 mg/kg [1, 3]: 8.1% | inhibition at 1 mg/kg [1, 3]: 45.9% | inhibition at 3 mg/kg [1, 3]: 79.7% | ED50 [1, 4]: 1.5 mg/kg

SMILES: CCCCCC(=O)CC[C@H]1[C@H](C)CC(=O)[C@@H]1CC(=O)CCCCC(=O)OCC [(39)]
inhibition at 0.3 mg/kg [1, 3]: 30.2% | inhibition at 1 mg/kg [1, 3]: 77.5% | inhibition at 3 mg/kg [1, 3]: 85.3% | ED50 [1, 4]: 0.5 mg/kg

EC50 (uterus): < 100 nM | EC50 (ileum): < 1000 nM | IC50 (trachea): < 100 nM
SMILES: CCCCC[C@H](O)/C=C/[C@H]1[C@H](O)CC(=O)[C@@H]1C/C=C\CCCC(=O)O [A]
ED50 [1, 10]: 0.5 mg/kg

EC50 (uterus): 100 to 10000 nM | EC50 (ileum): < 1000 nM | IC50 (trachea): < 100 nM
SMILES: CCCCC[C@H](O)/C=C/[C@H]1[C@H](O)CC(=O)[C@@H]1C/C=C\CCCC(=O)OCC [B]
ED50 [1, 10]: 0.4 mg/kg

EC50 (uterus): 100 to 10000 nM | EC50 (ileum): > 100000 nM | IC50 (trachea; Cavia porcellus): 100 to 10000 nM
SMILES: CCCCCC(=O)CC[C@H]1[C@H](O)CC(=O)[C@@H]1C/C=C\CCCC(=O)O [Material (1), 13, 14-dihydro-15-keto-PGE2, reference compound]
ED50 [1, 10]: > 20 mg/kg | ulcer inhibiting effect [1]: no pharmacological or physiological effect | antiulcerative effect ([1]; conclusion in words from Tables 1 and 2): no antiulcerative effect

EC50 (uterus): > 10000 nM | EC50 (ileum): > 100000 nM | IC50 (trachea): > 10000 nM
SMILES: CCCCCC(=O)CC[C@H]1[C@H](O)CC(=O)[C@@H]1C/C=C\CCCC(=O)OCC [Material (3), 13, 14-dihydro-15-keto-PGE2 ethyl ester]
ED50 [1, 10]: 1.5 mg/kg | ulcer inhibiting effect [1]: a high degree of ulcer inhibiting effect
